Data on three compounds can be found in patent EP0171342A1, “Substituted 2-(1-amino-akylidenyl)1,3-indane diones, process for their preparation and their therapeutical use” (priority 1984, dated 1986).

In data set [1] the test system is souris. In words: Antidepressant activity: inhibition of reserpine-induced ptosis in mice. The settings on record: mouse, oral 50 mg/kg 90 min before reserpine 5 mg/kg i.p.; index 0 (maximum ptosis) to 6 (no ptosis). It is filed as in vivo. How it is done:
L'activité antidépressive a été déterminée dans le test de potentialisation de la toxicité de la yohimbine et dans le test de l'inhibition du ptosis induit par la réserpine.
On injecte par voie sous cutanée à des souris, lh avant l'administration par voie orale du produit à tester, une dose non léthale de yohimbine soit 15 mg/kg. Le COR3760 administré à la dose de 100 mg/kg entraine 80% de mortalité dans ces conditions. Des souris reçoivent par voie orale le produit à tester 90 mn avant l'injection par voie intrapéritonéale de 5 mg/kg de réserpine solubilisée. On cote le ptosis selon un index allant de 0 à 6, la cote 0 correspondant à un ptosis maximum et la cote 6 à l'absence de ptosis. Les COR3760 et COR4011 conduisent dans les conditions de l'expérience à un ptosis coté à 4 pour une dose de respectivement 200 et 50 mg/kg.

Data set [2] concerns strips de veines mésentériques porte de rats normotendus. In words: Calcium antagonist activity: spontaneous contractions of rat portal mesenteric vein strips. The settings on record: 10 microg/ml.
The target of data set [3] is oreillettes droites de cobaye (Cavia porcellus, UniProt P47747). In words: Anti-H2 activity: histamine-induced chronotropic effect on unstimulated guinea pig right atria.
In data set [4] the test system is oreillette gauche de cobaye. In words: Calcium antagonist activity: electrically stimulated guinea pig left atrium. To be noted: 150 beats/min, low-calcium (0,6 mM) Tyrode solution; read-out: concentration qui inhibe de 50% l'augmentation de la force de contraction induite par l'addition de 0,6 mM de calcium. How it is done: L'activité anticalcique a été déterminée in vitro sur deux modèles expérimentaux.
Sur oreillette gauche de cobaye stimulée électriquement à 150 battements/mn dans une solution de Tyrode pauvre en calcium (0,6 mM), les COR3789, COR3792, COR4009, COR4010 et COR4011 employés respectivement à 25, 100, 50, 10 et 25 microg/ml inhibent de 50% l'augmentation de la force de contraction induite par l'addition de 0,6 mM de calcium.

In data set [5] the test system is rat Wistar soumis à une surcharge saline. In words: Diuretic activity in selected Wistar rats given a saline overload (modified Wiebelhaus test). The data set is classed as in vivo. How it is done:
L'activité diurétique des produits selon l'invention a été également déterminée chez le rat Wistar soumis à une surcharge saline selon une modification du test décrit par Wiebelhaus et coll., Fed. Proc., 1960, 19, 364, en procédant à une sélection des animaux. A la dose de 20 mg/kg, les COR4003, COR4008, COR4009, COR4010, COR4011, COR4012, COR4014, COR4016, COR4021, COR4025 augmentent l'excrétion urinaire volumétrique mesurée au bout de 6 heures de respectivement 56, 54, 65, 95, 73, 54, 33, 40, 99 et 92 %. L'excrétion urinaire du sodium augmente de respectivement 56, 24, 42, 59, 43, 33, 29, 43, 31, 83, 26, 99, 40 % toujours à cette dose pour les COR4003, COR4008, COR4009, COR4010, COR4011, COR4012, COR4014, COR4016, COR4017, COR4021, COR4023, COR4025 et COR4026. Le rapport Na/K demeure la plupart du temps inchangé. Testé dans les mêmes conditions le furosémide, administré à la dose de 20 mg/kg entraine 63% d'augmentation de l'excrétion urinaire volumétrique et 53% d'augmentation de l'excrétion urinaire du sodium.

Data set [6] deals with souris. In words: Acute toxicity (mortality, LD50) in mice. It is filed as in vivo. The settings on record: mouse.
The test system of data set [7] is souris. The experiment in a line: Anticonvulsant activity: maximal electroshock convulsions in mice. The data set is classed as in vivo. The settings on record: mouse, oral, 100 mg/kg, one hour after administration. From the text: L'activité anticonvulsivante est appréciée dans le test de la prévention des convulsions induites par des électrochocs d'intensité maximale.

For data set [8], the system named is rat vigile spontanément hypertendu. The experiment in a line: Antihypertensive activity in conscious spontaneously hypertensive rats (indirect tail pressure). The data set is classed as in vivo. To be noted: SHR, oral, 100 mg/kg. How it is done: L'activité antihypertensive a été appréciée chez le rat vigile spontanément hypertendu. La pression artérielle est mesurée de façon indirecte sur la queue 2, 4, 6 heures après l'administration par voie orale du produit à tester. Pour le COR4009, administré à la dose de 100 mg/kg, la réduction de pression est respectivement de 8, 13, 13% à ces échéances.

For data set [9], the system named is souris. The experiment in a line: Anticonvulsant activity: bicuculline-induced convulsions in mice. It is filed as in vivo. The settings on record: mouse, i.p., 100 mg/kg. How it is done:
L'activité anticonvulsivante est également déterminée dans le test des inhibitions des convulsions induites par la bicuculline. Des souris reçoivent par voie intrapéritonéale le produit à tester, puis 30 mn et 5 heures plus tard, deux injections séparées de 0,5 mg de bicuculline. […] Les résultats de ce test sont le reflet d'une activité gabaergique directe.

The test system of data set [10] is rat soumis à une surcharge hydrique. In words: Diuretic activity in rats given a water overload, oral. The data set is classed as in vivo. To be noted: rat, water overload, oral, 20 mg/kg; read-out: facteur multipliant l'excrétion urinaire du sodium. How it is done:
L'activité diurétique a été déterminée sur plusieurs modèles expérimentaux. Chez le rat soumis à une surcharge hydrique, administrés par voie orale à la dose de 20 mg/kg, le COR3760, le COR3789, le COR3792, le COR4002, le COR4003, le COR4009, le COR4010, le COR4012 et le COR4014 multiplient l'excrétion urinaire du sodium par respectivement un facteur 2,9 - 3,1 - 5,9 - 2,6 - 7,2 - 3,5 - 3,8 - 2,9 - 2,4. Administrés à la dose de 10 mg/kg, dans les mêmes conditions, les COR3760, COR3789, COR3792, COR4003 et COR4010 multiplient l'excrétion sodique par respectivement 2,3 - 2,9 - 2,8 - 2,4 et 2,5. La spironolactone multiplie quant à elle l'excrétion sodique d'un facteur 3,6 à la dose de 20 mg/kg. Administré à la dose de 5 mg/kg dans les mêmes conditions, le COR3792 multiplie l'excrétion sodique par 3,3. Administré par voie orale chez le rat ou la souris soumis à une surcharge saline, le COR3760 augmente l'excrétion urinaire volumétrique mesurée à la sixième heure de respectivement 49, 119 et 134% chez la souris et 28, 84 et 116% chez le rat après administration de 10, 20, et 40 mg/kg. Le COR3760 a été administré par voie orale au rat soumis à une surcharge hydrique et l'excrétion urinaire volumétrique, le sodium et le potassium excrétés ont été mesurés sur une période de 6 heures; ces paramètres ont varié de respectivement +17%, +102%, +165% à 10 mg/kg, +19%, +147%, +180% à 20 mg/kg et +36%, +415% et +239% à 40 mg/kg; le rapport Na/K passe de 0,56 chez les animaux témoins à 0,4 à 10 mg/kg, 0,49 à 20 mg/kg et 0, 8 à 40 mg/ kg. Au cours d'une seconde expérimentation, le COR3760 a entrainé des variations de +19%, +157%, +70% à 40 mg/kg, +19%, +319%, +90% à 60 mg/kg et +29%, +472% et +77% à 80 mg/kg; le rapport Na/K passe de 0,59 chez les animaux témoins à 0,88 à 40, 1,15 à 60 et 1,88 à 80 mg/kg.

The mark [11] stands for this setting: 6 h, read-out: augmentation de l'excrétion urinaire volumétrique mesurée au bout de 6 heures.
Setting [12] is: read-out: augmentation de l'excrétion urinaire du sodium.

Converted amounts (≈) assume the structure as drawn. Where two headings read alike, the source gives them in different places.

Sequence of oreillettes droites de cobaye (P47747 whole entry): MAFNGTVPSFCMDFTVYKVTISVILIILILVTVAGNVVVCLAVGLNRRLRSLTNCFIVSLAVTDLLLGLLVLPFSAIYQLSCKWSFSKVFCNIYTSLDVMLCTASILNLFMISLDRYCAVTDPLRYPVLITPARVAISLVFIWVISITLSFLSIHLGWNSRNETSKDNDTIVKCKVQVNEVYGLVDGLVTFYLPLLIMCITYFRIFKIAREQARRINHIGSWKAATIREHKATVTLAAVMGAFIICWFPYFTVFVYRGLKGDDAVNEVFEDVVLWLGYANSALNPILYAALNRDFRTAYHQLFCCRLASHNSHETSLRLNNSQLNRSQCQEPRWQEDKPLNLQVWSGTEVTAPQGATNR

Consider `CC(NCC1CC1)=C1C(=O)c2ccccc2C1=O` [COR4011, (Cyclopropylméthylamino-1 éthylidényl)-2 indanedione-1,3], for which, in data set [1], the “ptosis coté” value was 4. Besides, the “inhibition de l'augmentation, induite par le calcium, des contractions spontanées” value in data set [2] is reported as “inhibent l'augmentation”. Moreover, the “effet chronotrope négatif intrinsèque” value in data set [3] (at the concentration inhibiting the histamine effect by 50 % (COR4003 100, COR4011 50 microg/ml)) is recorded as “ne présentant pas d'effet chronotrope négatif intrinsèque”. Also, the IC50 was 207 µM in data set [3] (read-out: concentration qui inhibe de 50 % cet effet chronotrope, chronotropic effect induced by 5 microg/ml histamine) and 25 µg/mL (≈ 104 µM) in [4]. In addition, the change in vivo at 20 mg/kg in data set [5] (setting [11]) was 73%; in data set [5] (setting [12]), 43%. Further, the mortalité result in [6] (intraperitoneal, 200 mg/kg) is “aucune mortalité”; in data set [6] (oral, 300 mg/kg), “aucune mortalité”.
Take `CCCC(C)(COC(N)=O)COC(N)=O` [méprobamate, reference compound]: the “prévention des convulsions induites par des électrochocs d'intensité maximale” value in [7] is reported as “on n'observe plus de convulsions”.
For the compound `COCCNC(C)=C1C(=O)c2ccccc2C1=O` [COR4009, ((Méthoxy-2 éthyl) amino-1 éthylidényl)-2 indanedione-1,3], the “prévention des convulsions induites par des électrochocs d'intensité maximale” value in data set [7] was “on n'observe plus de convulsions”. Also, the figures for the réduction de pression in data set [8] (2 hours after administration), in [8] (4 hours after administration) and in data set [8] (6 hours after administration) were 8%, 13% and 13%, respectively. Also, the IC50 in data set [4] is 50 µg/mL (≈ 204 µM). Besides, the “inhibition des convulsions induites par la bicuculline” value in data set [9] (first bicuculline injection (30 min later)) was “inhibe les convulsions induites par la première injection”; in data set [9] (second bicuculline injection (5 hours later)), “sans inhiber celles induites par la deuxième”. Also, the response vs control in vivo at 20 mg/kg in data set [10] worked out at 350%. The change in vivo at 20 mg/kg in [5] (setting [11]) stood at 65%; in data set [5] (setting [12]), 42%. The mortalité entry in data set [6] (intraperitoneal, 200 mg/kg) is listed as “aucune mortalité”; in data set [6] (oral, 300 mg/kg), “aucune mortalité”.
